Measurements from PubChem BioAssay AID256 (DTP/NCI, 2004).
Values joined by “and” are separate entries in the source; they are usually repeats but may differ in a detail not shown here. Identical values can stand only once. Inconclusive results and toxic doses are left out. Rule for the calls: active = survival T/C of 150% or more; inactive = T/C below 125% in these data.

System: CD2F1 mice, L1210 leukemia ip, survival T/C
Assay: NCI In Vivo Anticancer Drug Screen. Data for tumor model L1210 Leukemia (intraperitoneal) in CD2F1 (CDF1) mice
Conditions: higher = longer survival
Procedure, shortened: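 Ratio T/C, where T is the treated-group value and C the vehicle-dosed control value, from mice implanted with a transplantable tumor.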

[1] = endpoint: mean survival time, dose: 100.0 mg/kg/injection, schedule: Q01DX009 (ip), vehicle: saline with Tween-80
[2] = endpoint: mean survival time, dose: 200.0 mg/kg/injection, schedule: Q01DX009 (ip), vehicle: saline with Tween-80
[3] = endpoint: mean survival time, dose: 400.0 mg/kg/injection, schedule: Q01DX009 (ip), vehicle: saline with Tween-80
[4] = endpoint: mean survival time, dose: 25.0 mg/kg/injection, schedule: Q04DX002 (ip), vehicle: saline with Tween-80
[5] = endpoint: mean survival time, dose: 50.0 mg/kg/injection, schedule: Q04DX002 (ip), vehicle: saline with Tween-80
[6] = endpoint: mean survival time, dose: 100.0 mg/kg/injection, schedule: Q04DX002 (ip), vehicle: saline with Tween-80
[7] = endpoint: mean survival time, dose: 200.0 mg/kg/injection, schedule: Q04DX002 (ip), vehicle: saline with Tween-80
[8] = endpoint: mean survival time, dose: 100.0 mg/kg/injection, schedule: Q01DX001 (ip), vehicle: saline with Tween-80
[9] = endpoint: mean survival time, dose: 200.0 mg/kg/injection, schedule: Q01DX001 (ip), vehicle: saline with Tween-80
[10] = endpoint: mean survival time, dose: 100.0 mg/kg/injection, schedule: Q04DX003 (ip), vehicle: saline with Tween-80
[11] = endpoint: mean survival time, dose: 200.0 mg/kg/injection, schedule: Q04DX003 (ip), vehicle: saline with Tween-80
[12] = endpoint: mean survival time, dose: 400.0 mg/kg/injection, schedule: Q04DX003 (ip), vehicle: saline with Tween-80

Measured: T/C

Cc1ccc2nc(-c3ccc(N=Cc4ccccc4O)cc3)sc2c1
inactive: endpoint: mean survival time, dose: 12.5 mg/kg/injection, schedule: Q01DX009 (ip), vehicle: olive oil, sesame oil, peanut oil 100 % of control | endpoint: mean survival time, dose: 25.0 mg/kg/injection, schedule: Q01DX009 (ip), vehicle: olive oil, sesame oil, peanut oil 98 % of control | endpoint: mean survival time, dose: 50.0 mg/kg/injection, schedule: Q01DX009 (ip), vehicle: olive oil, sesame oil, peanut oil 102 % of control | endpoint: mean survival time, dose: 100.0 mg/kg/injection, schedule: Q01DX009 (ip), vehicle: olive oil, sesame oil, peanut oil 95 % of control | endpoint: mean survival time, dose: 200.0 mg/kg/injection, schedule: Q01DX009 (ip), vehicle: olive oil, sesame oil, peanut oil 100 % of control | endpoint: mean survival time, dose: 400.0 mg/kg/injection, schedule: Q01DX009 (ip), vehicle: olive oil, sesame oil, peanut oil 96 % of control

Cc1ccc(S(=O)(=O)OC2C3OCC(O3)C3OC(C)OC32)cc1 (stereo not given)
inactive: [1] 92 % of control | [2] 95 % of control | [3] 95 % of control

CC(CN=Cc1ccccc1O)N=Cc1ccccc1O.[Cu] (stereo not given)
inactive: [4] 96 % of control | [5] 103 % of control | [6] 100 % of control | [7] 103 % of control

COC1OC2COc3ccccc3OC2C(N)C1SSC1C(OC)OC2COc3ccccc3OC2C1N (stereo not given)
inactive: endpoint: mean survival time, dose: 75.0 mg/kg/injection, schedule: Q01DX001 (ip), vehicle: saline with Tween-80 94 % of control | endpoint: mean survival time, dose: 150.0 mg/kg/injection, schedule: Q01DX001 (ip), vehicle: saline with Tween-80 95 % of control | endpoint: mean survival time, dose: 300.0 mg/kg/injection, schedule: Q01DX001 (ip), vehicle: saline with Tween-80 94 % of control

CSc1sc2cc([N+](=O)[O-])ccc2[n+]1C
inactive: endpoint: mean survival time, dose: 75.0 mg/kg/injection, schedule: Q01DX001 (ip), vehicle: saline 103 % of control

CS(=O)(=O)OC1CCCSc2ccccc21 (stereo not given)
inactive: endpoint: mean survival time, dose: 100.0 mg/kg/injection, schedule: Q01DX001 (ip), vehicle: carboxymethylcellulose (CMC) 103 % of control | endpoint: mean survival time, dose: 200.0 mg/kg/injection, schedule: Q01DX001 (ip), vehicle: carboxymethylcellulose (CMC) 97 % of control | endpoint: mean survival time, dose: 400.0 mg/kg/injection, schedule: Q01DX001 (ip), vehicle: carboxymethylcellulose (CMC) 97 % of control

Cc1cc(C2(c3ccc(O)c(C)c3)CCCCC2)ccc1O
inactive: [8] 97 % of control | endpoint: mean survival time, dose: 100.0 mg/kg/injection, schedule: Q01DX009 (ip), vehicle: Klucel (hydroxypropylcellulose) (HPC) 95 % of control | [9] 94 % of control | endpoint: mean survival time, dose: 200.0 mg/kg/injection, schedule: Q01DX009 (ip), vehicle: Klucel (hydroxypropylcellulose) (HPC) 94 % of control | endpoint: mean survival time, dose: 400.0 mg/kg/injection, schedule: Q01DX001 (ip), vehicle: saline with Tween-80 96 % of control | endpoint: mean survival time, dose: 400.0 mg/kg/injection, schedule: Q01DX009 (ip), vehicle: Klucel (hydroxypropylcellulose) (HPC) 94 % of control

COC1OC2COc3ccccc3OC2C2N=C(N)SC12 (stereo not given)
inactive: [8] 100 % of control | [9] 97 % of control

COC1OC(CO)C2OC(=O)NC2C1O (stereo not given)
inactive: endpoint: mean survival time, dose: 100.0 mg/kg/injection, schedule: Q04DX003 (ip), vehicle: saline 98 % of control | endpoint: mean survival time, dose: 200.0 mg/kg/injection, schedule: Q04DX003 (ip), vehicle: saline 94 % of control | endpoint: mean survival time, dose: 400.0 mg/kg/injection, schedule: Q04DX003 (ip), vehicle: saline 100 % of control

O=C(O)c1ccccc1CCl
inactive: [10] 103 % of control | [11] 108 % of control | [12] 108 % of control

CN=C(N)N/N=C(\C)c1ccc2sc3ccc(/C(C)=N/NC(N)=NC)cc3c2c1
inactive: endpoint: median survival time, dose: 25.0 mg/kg/injection, schedule: Q01DX009 (ip), vehicle: saline with Tween-80 113 % of control and 124 % of control | endpoint: median survival time, dose: 50.0 mg/kg/injection, schedule: Q01DX009 (ip), vehicle: saline with Tween-80 112 % of control | endpoint: median survival time, dose: 100.0 mg/kg/injection, schedule: Q01DX009 (ip), vehicle: saline with Tween-80 117 % of control | endpoint: median survival time, dose: 200.0 mg/kg/injection, schedule: Q01DX009 (ip), vehicle: saline with Tween-80 119 % of control | endpoint: median survival time, dose: 400.0 mg/kg/injection, schedule: Q01DX009 (ip), vehicle: saline with Tween-80 119 % of control and 102 % of control

OC(COc1ccc(Cl)cc1Cl)COc1ccc(Cl)cc1Cl
inactive: [10] 95 % of control | [11] 92 % of control | [12] 93 % of control

O=[N+]([O-])c1ccc(Oc2nc(Cl)nc(Oc3ccc([N+](=O)[O-])cc3)n2)cc1
inactive: endpoint: mean survival time, dose: 25.0 mg/kg/injection, schedule: Q04DX003 (ip), vehicle: Klucel (hydroxypropylcellulose) (HPC) 93 % of control | endpoint: mean survival time, dose: 50.0 mg/kg/injection, schedule: Q04DX003 (ip), vehicle: Klucel (hydroxypropylcellulose) (HPC) 93 % of control | endpoint: mean survival time, dose: 100.0 mg/kg/injection, schedule: Q04DX003 (ip), vehicle: Klucel (hydroxypropylcellulose) (HPC) 86 % of control

CS(=O)(=O)c1cnnc2ccccc12
inactive: [10] 98 % of control | [11] 93 % of control | [12] 86 % of control

O=N[O-].O=N[O-].[Co].[NH2-].[NH2-].[NH2-].[NH2-]
inactive: [4] 93 % of control | [5] 101 % of control | [6] 101 % of control

CC(=O)OC(c1ccccc1)(c1ccccc1)c1ccncc1
inactive: endpoint: mean survival time, dose: 100.0 mg/kg/injection, schedule: Q04DX003 (ip), vehicle: other 93 % of control | endpoint: mean survival time, dose: 200.0 mg/kg/injection, schedule: Q04DX003 (ip), vehicle: other 89 % of control | endpoint: mean survival time, dose: 400.0 mg/kg/injection, schedule: Q04DX003 (ip), vehicle: other 93 % of control

CC12CCC(=O)C=C1CC(CC(=O)O)CC2 (stereo not given)
inactive: [6] 100 % of control | [7] 108 % of control | endpoint: mean survival time, dose: 400.0 mg/kg/injection, schedule: Q04DX002 (ip), vehicle: saline with Tween-80 104 % of control

CCOC(=O)C(=CN1CCCCCC1)C(=O)OCC
inactive: [1] 94 % of control | [2] 89 % of control | [3] 94 % of control

NCC(Cc1ccc(O)cc1)P(=O)(O)O (stereo not given)
inactive: [1] 102 % of control | [2] 105 % of control | [3] 93 % of control

CCOC(=O)NC(=O)OCC
inactive: endpoint: mean survival time, dose: 100.0 mg/kg/injection, schedule: Q01DX001 (ip), vehicle: saline sonified 102 % of control | endpoint: mean survival time, dose: 200.0 mg/kg/injection, schedule: Q01DX001 (ip), vehicle: saline sonified 107 % of control | endpoint: mean survival time, dose: 400.0 mg/kg/injection, schedule: Q01DX001 (ip), vehicle: saline sonified 100 % of control

N\C([S-])=N/N=C\C(=N/N=C(\N)[S-])C(O)C(O)C(O)CO.[Rh+2] (stereo not given)
inactive: endpoint: mean survival time, dose: 100.0 mg/kg/injection, schedule: Q01DX001 (ip), vehicle: saline 98 % of control | endpoint: mean survival time, dose: 200.0 mg/kg/injection, schedule: Q01DX001 (ip), vehicle: saline 96 % of control | endpoint: mean survival time, dose: 400.0 mg/kg/injection, schedule: Q01DX001 (ip), vehicle: saline 96 % of control

Cc1cc(C)c(C(Cl)(Cl)Cl)c(C)c1Cl
inactive: endpoint: mean survival time, dose: 25.0 mg/kg/injection, schedule: Q01DX009 (ip), vehicle: saline with Tween-80 108 % of control | endpoint: mean survival time, dose: 50.0 mg/kg/injection, schedule: Q01DX009 (ip), vehicle: saline with Tween-80 111 % of control | [8] 107 % of control

Cc1ccc(N=Nc2sc(N)nc2-c2cccc([N+](=O)[O-])c2)cc1
inactive: [8] 89 % of control | [9] 96 % of control

O=c1[nH]cc(Oc2ccccc2)c(=O)[nH]1
inactive: endpoint: mean survival time, dose: 50.0 mg/kg/injection, schedule: Q01DX001 (ip), vehicle: saline with Tween-80 104 % of control | [8] 96 % of control | [9] 98 % of control

CCCC(=O)Nc1ncnc2c1nc(NC(=O)CCC)n2C1OC2COP(=O)(O)OC2C1OC(=O)CCC (stereo not given)
inactive: endpoint: mean survival time, dose: 6.25 mg/kg/injection, schedule: Q01DX005 (ip), vehicle: water 97 % of control | endpoint: mean survival time, dose: 12.5 mg/kg/injection, schedule: Q01DX005 (ip), vehicle: water 104 % of control | endpoint: mean survival time, dose: 25.0 mg/kg/injection, schedule: Q01DX005 (ip), vehicle: water 93 % of control | endpoint: mean survival time, dose: 50.0 mg/kg/injection, schedule: Q01DX005 (ip), vehicle: water 97 % of control | endpoint: mean survival time, dose: 100.0 mg/kg/injection, schedule: Q01DX005 (ip), vehicle: water 93 % of control

C=C(Cc1ccccc1)C(=O)O
inactive: [4] 92 % of control | [5] 92 % of control | [6] 95 % of control

CCN(CC)c1ccc2cc(-c3nc4ccccc4n3C)c(=O)oc2c1
inactive: endpoint: mean survival time, dose: 3.13 mg/kg/injection, schedule: Q01DX009 (ip), vehicle: Klucel (hydroxypropylcellulose) (HPC) 90 % of control | endpoint: mean survival time, dose: 6.25 mg/kg/injection, schedule: Q01DX009 (ip), vehicle: Klucel (hydroxypropylcellulose) (HPC) 91 % of control and 93 % of control and 96 % of control | endpoint: mean survival time, dose: 12.5 mg/kg/injection, schedule: Q01DX009 (ip), vehicle: Klucel (hydroxypropylcellulose) (HPC) 93 % of control and 96 % of control and 103 % of control | endpoint: mean survival time, dose: 50.0 mg/kg/injection, schedule: Q01DX009 (ip), vehicle: Klucel (hydroxypropylcellulose) (HPC) 120 % of control and 121 % of control and 103 % of control

CCCCN=Cc1ccccc1O.CCCCN=Cc1ccccc1O.[Cr]
inactive: [8] 93 % of control
